Patent publication US11331290B2, “Niclosamide for the treatment of cancer metastasis” (Max-Delbrück-Centrum für Molekulare Medizin in der …, priority 2011, dated 2022)

Assays:
S100A4 promoter = assay: High-throughput screening, S100A4 promoter-driven luciferase reporter; type: cell-based, human; settings: HCT116-S100A4p-LUC cells, 20-concentration rescreen, 2-fold dilutions from 100 μM, 24 h
Experimental: HCT116-S100A4p-LUC colon cancer cells stably expressing a human S100A4 promoter-driven luciferase reporter gene construct were screened with the Library of Pharmacologically Active Compounds (LOPAC; FIG. 1, A). The LOPAC Library represents a collection of 1280 well characterized small molecule inhibitors. […] In parallel, cell viability was determined using the Alamar blue assay to evaluate whether some of the inhibitory effects were caused by cytotoxicity (data not shown). […]
For high-throughput screening 2.5×10^3 cells per well of HCT116-S100A4p-LUC cells were seeded into white opaque 384-well plates (Perkin Elmer, Waltham, Mass.) using the BIOMEK 2000 automatic pipetting system (Beckman Coulter, Brea, Calif.). […] Following compound treatment, luciferase expression was determined using Britelite reagent (Perkin Elmer) in a Wallac Victor reader (Perkin Elmer). In parallel, cytotoxicity of the compounds was measured in clear polystyrene 384-well plates (Costar) by Alamar blue cytotoxicity assay (Sigma-Aldrich). […] Plates were then read on a Wallac Victor reader at an excitation wavelength of 530 nm and emission wavelength of 590 nm. For both luminescence and Alamar blue fluorescence data, eight vehicle control wells were averaged and test compound results (single well) expressed as percent of control. […]

HCT116-S100A4 cells = assay: Boyden chamber invasion assay (Matrigel); type: cell-based, human; settings: 1 μM, 24 h, statistically not significant
Experimental: (§1) HCT116, SW620, LS174T, SW480 and DLD-1 cells were used in cell migration and invasion analysis performed with Boyden chamber assay. 400 μL containing 2.5×10^5 cells were seeded into each transwell chamber with filter membranes of 12.0 μm pore size (Millipore, Schwalbach, Germany). For invasion filter membranes were coated with 50 μL Matrigel (diluted 1:3 in RPMI-1640; BD Biosciences) 10 minutes before cells were seeded. Fresh medium (600 μL) were added to the bottom chamber and cells were allowed to attach to the insets for 15 hours. Both chambers were treated with 1 μM niclosamide or the respective amount of DMSO and incubated at 37° C. and 5% CO2 in a humidified incubator for 24 hours. Afterwards insets were removed and cells that had migrated through the membrane to the lower chamber were trypsinized and counted in a Neubauer chamber (LO-Laboroptik, Bad Homburg, Germany). Each well was counted ten times. Each migration or invasion experiment was performed in duplicate. The average number of migrated or invaded cells was determined for at least three independent experiments.
(§2) (A) Cell migration of HCT116-vector and HCT116-S100A4 cells exposed to niclosamide treatment. Cells were treated with 1 μM niclosamide for 24 hours and migration rates were measured with Boyden chamber assay. (B) Cell invasion of HCT116-vector and HCT116-S100A4 cells exposed to niclosamide treatment. Cells were treated with 1 μM niclosamide for 24 hours and cell invasion was determined by Boyden chamber assay. (C) Directed migration of HCT116-vector and HCT116-S100A4 cells exposed to niclosamide treatment analyzed by wound healing assay. Wounds of 300 μM width were set in a 60% confluent monolayer of HCT116-vector or HCT116-S100A4 cells on day 1. Cells were treated daily with 1 μM niclosamide for 4 days. Microphotographs of day 4 are presented here with black lines indicating margins of entered wound of day 1; scale bar represents 200 μM. Data represents three independent experiments. (D) Adhesive cell proliferation of HCT116-vector and HCT116-S100A4 cells exposed to niclosamide treatment. Cells were treated daily with 1 μM niclosamide and cell viability was determined with MTT assay. (E) Anchorage-independent cell growth of HCT116-vector and HCT116-S100A4 cells exposed to niclosamide treatment. Cells were plated as single cells into 0.33% (w/v) agarose and treatment (solvent or 1 μM niclosamide) containing medium. After 7 days colonies were visualized by light microscopy at 10× (overview) and 40× (single colony) magnification. (F) Quantification of colonies formed. Number of colonies (of more than 4 cells) was counted and normalized to solvent-treated HCT116-vector cells. Differences of niclosamide vs. solvent-treated cells were analyzed by Student's t test. […]

HCT116-vector cells = assay: Boyden chamber invasion assay (Matrigel); type: cell-based, human; settings: 24 h
Experimental: as §1, §2

[1] = mice chronically fed 200 mg/kg, two years observation time; cited from earlier work

O=C(Nc1ccc([N+](=O)[O-])cc1Cl)c1cc(Cl)ccc1O [niclosamide, 2′,5-dichloro-4′-nitrosalicylanilide]
inhibition of reporter gene expression (S100A4 promoter): strongest candidate
invasion rate, mean % (HCT116-S100A4 cells; solvent control 111.4%): 122.5%
invasion, mean difference control vs niclosamide (HCT116-S100A4 cells): −11.1%
invasion, mean difference control vs niclosamide (HCT116-vector cells; 1 μM): 69.9%
activity at 1 µM (HCT116-vector cells; Homo sapiens, read-out: number of invaded cells, mean % of control): 30.1%
adverse effects [1]: no adverse effects
